In one assay the target is AChE (Electrophorus electricus, UniProt O42275). The assay can be described thus: Ellman's assay, AChE (type VI-S) inhibition. The class given is biochemical.
The target in the next assay is BChE (Equus caballus, UniProt P81908). As to the kind of experiment: Ellman's assay, BChE inhibition. The class given is biochemical. (DTNB colorimetry detects thiols as they appear.)

pIC50: −log10 of the molar value.

Sequence of AChE (O42275 24-633): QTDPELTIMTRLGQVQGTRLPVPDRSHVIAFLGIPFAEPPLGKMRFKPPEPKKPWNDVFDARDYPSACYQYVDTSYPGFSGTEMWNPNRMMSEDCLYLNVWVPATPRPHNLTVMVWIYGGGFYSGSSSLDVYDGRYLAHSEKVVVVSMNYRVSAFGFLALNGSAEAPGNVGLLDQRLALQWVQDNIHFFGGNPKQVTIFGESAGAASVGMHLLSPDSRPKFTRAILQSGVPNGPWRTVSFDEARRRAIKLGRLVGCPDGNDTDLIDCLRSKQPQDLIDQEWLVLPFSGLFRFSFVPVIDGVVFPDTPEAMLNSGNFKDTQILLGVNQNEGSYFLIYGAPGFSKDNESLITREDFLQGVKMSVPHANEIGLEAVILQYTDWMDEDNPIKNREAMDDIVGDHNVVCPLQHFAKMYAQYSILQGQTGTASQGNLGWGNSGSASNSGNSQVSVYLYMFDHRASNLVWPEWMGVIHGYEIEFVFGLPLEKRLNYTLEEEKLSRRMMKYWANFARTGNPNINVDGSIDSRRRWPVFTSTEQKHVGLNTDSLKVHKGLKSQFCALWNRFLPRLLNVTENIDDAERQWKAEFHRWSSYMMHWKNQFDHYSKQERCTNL
Sequence of BChE (P81908 whole entry): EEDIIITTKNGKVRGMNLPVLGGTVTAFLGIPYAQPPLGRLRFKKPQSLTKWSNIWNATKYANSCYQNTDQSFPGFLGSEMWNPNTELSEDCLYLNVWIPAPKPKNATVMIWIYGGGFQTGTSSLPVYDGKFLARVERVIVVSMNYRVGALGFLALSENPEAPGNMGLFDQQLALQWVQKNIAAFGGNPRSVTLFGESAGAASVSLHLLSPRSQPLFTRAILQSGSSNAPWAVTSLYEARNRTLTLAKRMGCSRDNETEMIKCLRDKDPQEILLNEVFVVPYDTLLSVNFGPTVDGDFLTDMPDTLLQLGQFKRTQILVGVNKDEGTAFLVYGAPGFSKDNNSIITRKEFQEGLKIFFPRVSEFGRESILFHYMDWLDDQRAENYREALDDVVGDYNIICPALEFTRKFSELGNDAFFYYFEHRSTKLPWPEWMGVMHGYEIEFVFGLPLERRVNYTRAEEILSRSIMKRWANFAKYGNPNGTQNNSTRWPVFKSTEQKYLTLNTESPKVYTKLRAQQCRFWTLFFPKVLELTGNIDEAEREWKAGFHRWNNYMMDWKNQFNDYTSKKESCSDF

Take `C/C=C\c1ccc(O)c(OC)c1` [isoeugenol]: the negative logarithm of the IC50 (pIC50) (commonly −log10 of the IC50, conventionally taken in molar units) at AChE is 2.58; on BChE, 2.77.

The values above are taken from paper PMC11808583 (Current Neuropharmacology, 2024).
